Measurements published in patent US6642201B1, “Use of a dipeptide for stimulating repair processes” (priority 1998, dated 2003).
Values joined by “and” are separate entries in the source; they are usually repeats but may differ in a detail not shown here. Equal values may be shown once. Where a SMILES comes first, the peptide text is derived from it.

Tested on: duodenum mucous membrane cells
Assay: Regeneration of the intestinal mucous membrane after radiation injury
Assay type: in vivo, white male rats of the Wistar line
Settings: 8th day
Protocol: The work has been performed on 24 two-month-old white male rats of the Wistar line, weighing 90-100 grams. The following three groups of animals were researched;
2 group—control (irradiated animals);
3 group—irradiated animals injected with L-Lys-L-Glu dipeptide.
A general single γ—irradiation of 6 Gy, inducing “the syndrome of intestinal death”, was made by the cobalt apparatus GUB 20000, with the dose capacity of 200 rad/min.
L-Lys-L-Glu dipeptide was injected 24 hours after the irradiation—0.5 μkg in 0.5 ml of the […]—intraperitoneally during 5 days. The animals from the first and second groups received the […] by the same scheme.
The study of L-Lys-L-Glu dipeptide's action has been performed on the proximal section of the duodenum of irradiated animals. The animals were killed under nembutal narcosis (50 mg/kg on the 8th day after irradiation (beginning of the period of repair regeneration). Pieces of the duodenum were being preserved during 24 hours by Karnovsky for the electronic microscopy.
The ultra-structural research was conducted under the JEM-100S microscope (JEOL, Japan) at the ultra-thin microscopic sections prepared on the LKB-7A ultra-microtome (LKB, Sweden) and contrasted by uranilacetatc and lead cytrate.
Mast cells were selectively stained with 1% solution of toluidine blue (Fluka) in 0,5 M HCl, with pH—0.5 (8,9).
To reveal MTL-positive cells, were used rabbits' antibodies to metal-tioneins (1-2000).
Immunohistochemical identification of antigenes at the histological sections was made according to the main requirements to immune-peroxydase methods (10,11).
The quantity research was conducted with the help of the system of computer analysis of microscopic images—IMSTAR (Imstar, France)—the Morphostar-2 and Colquant-2 license applied software were employed, in accordance with the general principles of stereology in morphometry (12, 13). For each animal, the calculation of corresponding structures was made In ten visual eye sights by three sections of the studied organ. The mitotic index (1mit) and the index of proliferating ability (Ipcna) of the duodenum cells were defined in 10-15 standard sections of crypts, with the overall contents of not less than 1000 nuclei of enterocytes. The test area for finding serotonin-positive and mast cells covered not less than 3 mm^2. MML-positive cells were counted in 100 duodenum crypts.

[1] = irradiated rats 6 Gy, 0.5 μkg i.p. during 5 days, duodenum
[2] = irradiated rats 6 Gy, 0.5 μkg i.p. during 5 days, duodenum crypts

NCCCC[C@H](N)C(=O)N[C@@H](CCC(=O)O)C(=O)O [L-Lys-L-Glu dipeptide, L-lysil-L-glutamic acid] (H-Lys-Glu-OH)
NMC/1 mm^2 (quantity of mast cells/1 square mm) [1]: 24 ± 3 /1 mm^2
NMT/100 crypts (quantity of L-positive cells in 100 intestine crypts) [1]: 102 ± 9 /100 crypts
Pser (volume density of serotonin-immunopositive cells) [1]: 0.71 ± 0.09%
IPCNA (index of cell proliferative ability-PCNA) [2]: 49.89% and 49.8 ± 0.7 %
Imit (mitotic index) [2]: 4.7% and 4.7 ± 0.1%
MTL-positive cells in the crypts' base (irradiated rats): tendency to the increase of number and intensity of immune-staining
quantitative density of enterochromaffinn cells (irradiated rats): practically gets equal to that of healthy animals
